Publication PMC5034043 (The Journal of Biological Chemistry, 2016)
Where two headings read alike, the source gives them in different places.

System: synaptosomal proteome
Format: binding, mouse
Experimental: Synaptosomes were resuspended to 1 mg of protein/ml in HEPES buffer medium (in mM: 140 NaCl, 5 KCl, 5 NaHCO3, 1.2 NaH2PO4, 1 MgCl2, 10 glucose, and 10 HEPES (pH 7.4)). […] The samples were allowed to equilibrate for 5 min before being transferred to a parafilm-sealed 1-mm path length quartz cuvette. The sample was then irradiated for 20 min at a peak bandwidth of 350 nm (Rayonet RPR-3500 lamp) ∼6 cm from the light source. Non-irradiated samples were left in the dark at ambient temperature (22–25 °C) for 20 min. All remaining procedures were conducted with restricted light exposure.
To 750 μg of photolabeled or control synaptosome samples, 40 μl of 10% SDS and 2 μl of 5 mM DTT in water were added. Samples were then vortexed, heated for 10 min at 65 °C, and then briefly cooled. Final concentrations of 150 μM azide-biotin (Click Chemistry Tools), 2 mM tris(3-hydroxypropyltriazolylmethyl)amine (Sigma), 1 mM ascorbic acid (Sigma), and 1 mM CuSO4·5H2O (Sigma) were added to each sample and vortexed vigorously. The samples were left in the dark at ambient temperature (22–25 °C) for 1 h with mild agitation. Directly to each sample 4× volume chilled methanol, 1.5× chilled chloroform, and 3× chilled double distilled H2O were added. Samples were vortexed vigorously and centrifuged at 1,400 × g for 30 min at 4 °C. Both liquid layers were carefully removed, and the protein pellet was washed with 2 ml of 1:1 (v/v) chilled methanol/chloroform. Samples were centrifuged at 3,500 × g for 30 min at 4 °C. Protein pellets were briefly air-dried before further processing.
750 μg of biotin-conjugated protein sample was resuspended in 500 μl of 25 mM NH4HCO3 and 6 M urea in water. Next, 150 μl of 5% Triton X-100 in water, 50 μl of 10% SDS in water, and 1.5 μl of 0.5 M DTT were added. The samples were heated for 15 min at 65 °C. After briefly cooling, 14 μl of 0.5 M iodoacetamide in water was added, and the sample was left in the dark for 45 min. […] The supernatant was diluted to 4 ml with PBS, and 2 ml of PBS containing 100 μl of 50% streptavidin-agarose resin (Thermo Scientific) was added. Biotinylated proteins within the sample were captured over resin overnight at 4 °C with mild agitation. The resin was first washed with 6 ml of 1% SDS in PBS, and then 7 ml of 0.1 M urea in PBS followed by 10 ml of PBS. The resin underwent a final wash with 0.9 ml of 50 mM Tris-HCl and 1 mM CaCl2 in water (pH 8.0) and then resuspended in 200 μl of 50 mM Tris-HCl, 1 mM CaCl2 in water (pH 8.0), and 2 μg of porcine sequencing grade trypsin (Promega). Samples were digested overnight at 37 °C. Samples were then centrifuged at 2,000 × g for 4 min, and digest supernatant was decanted. Beads were washed in 100 μl of PBS centrifuged at 5,200 × g for 5 min, and the wash was combined with the digest supernatant. To the combined sample, trifluoroacetic acid (TFA) was added to 0.4% (v/v) or until pH <2. The sample was desalted with Oasis C18 10-mg columns (Waters) as described previously ([66]). The eluted sample was dried by speed vac and resuspended in 0.1 M HEPES buffer (pH 8.5). […] Appropriate corresponding TMTsixplex^TM-labeled samples were pooled and dried by speed vac. The combined samples were resuspended in 0.5% acetic acid in water and pH-corrected with acetic acid until pH was <2. 40 μg of protein was desalted with C18 stage tips prepared in-house and dried by speed vac.
Samples were resuspended in 10 mM KH2PO4 (pH 2.6), 30% acetonitrile (v/v) in water, and fractionated by off-line strong cation exchange chromatography prior to mass spectrometry (MS) analysis similar to as reported previously ([66]). The full synaptosome proteome control was prepared similarly without TMTsixplex^TM labeling.
All TMT samples were analyzed with three-stage mass spectrometry (MS3) TMTsixplex^TM quantification workflow as described previously ([34]).

[1] = protein A2AI17 Glutamate receptor ionotropic, NMDA 1 (Grin1)
[2] = protein P70429-2 Isoform 1 of Ena/VASP-like protein (Evl)
[3] = protein P97300-3 Isoform 3 of Neuroplastin (Nptn)
[4] = protein Q8BJU0-2 Isoform 2 of Small glutamine-rich tetratricopeptide repeat-containing protein alpha (Sgta)
[5] = protein Q9DBF1-2 Isoform 2 of Alpha-aminoadipic semialdehyde dehydrogenase (Aldh7a1)
[6] = protein Q9EPJ9-2 Isoform 2 of ADP-ribosylation factor GTPase-activating protein 1 (Arfgap1)
[7] = protein Q8CFX3 Protein Pcdh1 (Pcdh1)

## C#CCOCc1ccc(C2(C(F)(F)F)N=N2)cc1O [AziPm-click (1), 2-((prop-2-yn-1-yloxy)methyl)-5-(3-(trifluoromethyl)-3H-diazirin-3-yl)phenol]
O35633-2 Slc32a1
  TMT Ratio Mean 'UV/ No UV': 20.27
P60879-2 Snap25
  TMT Ratio Mean 'UV/ No UV': 23.67
[1]
  Log2( Mean 'UV/ No UV'): 3.36
  TMT Ratio Mean 'UV/ No UV': 10.28
Protein P23819-4 Isoform 4 of Glutamate receptor 2 (Gria2)
  TMT Ratio Mean 'UV/ No UV': 12.58
[2]
  TMT Ratio Mean 'UV/ No UV': 19.89
[3]
  TMT Ratio Mean 'UV/ No UV': 12.71
[4]
  TMT Ratio Mean 'UV/ No UV': 15.19
[5]
  TMT Ratio Mean 'UV/ No UV': 14.82
[6]
  TMT Ratio Mean 'UV/ No UV': 10.88

## CC(C)c1cccc(C(C)C)c1O [propofol, 2,6-diisopropylphenol, reference compound]
O35633-2 Slc32a1
  Log2( Mean 'UV/ UV+propofol'): 1.24
Q8BKX1-4 Baiap2
  % propofol protection: 71%
  Log2( Mean 'UV/ UV+propofol'): 1.77
Q8VDQ8-2 Sirt2
  % propofol protection: 71%
  Log2( Mean 'UV/ UV+propofol'): 1.61
Five GABAA receptor subunits (α1,3 and β1–3), enrichment factor = mean (+)UV/(−)UV TMT ratio
  decrease in enrichment factor with propofol protection: at least 10
[1]
  % propofol protection: 57%
  Log2( Mean 'UV/ UV+propofol'): 1.07
[2]
  % propofol protection: 56%
  Log2( Mean 'UV/ UV+propofol'): 1.14
[3]
  Log2( Mean 'UV/ UV+propofol'): 1.17
[4]
  % propofol protection: 56%
  Log2( Mean 'UV/ UV+propofol'): 1.02
[7]
  % propofol protection: 50%
  Log2( Mean 'UV/ UV+propofol'): 0.87
[5]
  % propofol protection: 52%
  Log2( Mean 'UV/ UV+propofol'): 0.94
[6]
  % propofol protection: 56%
  Log2( Mean 'UV/ UV+propofol'): 1.06
